Tests used:
Experiment in all cases: -log10 GI50 (growth inhibition 50%) (-log10(M)); higher = more potent growth inhibition
SUM52PE = system: SUM52PE
Outline: (§1)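 A value carrying a < qualifier equals the top dose tested. Each compound was tested in triplicate on breast cancer cell lines for 72 hours at nine doses in 1:5 serial dilution, using a luminescence read-out against a time-zero plate. Nonlinear least squares fitting of a Gompertz curve gave GI50, the molar concentration causing the set level of growth inhibition, which is reported as its negative logarithm. The logarithm is base 10.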

HCC38 = system: HCC38
Outline: as §1

HCC70 = system: HCC70
Outline: as §1

T47D_KBluc = system: T47D_KBluc
Outline: as §1

184B5 = system: 184B5
Outline: as §1

SUM229PE = system: SUM229PE
Outline: as §1

MDAMB453 = system: MDAMB453
Outline: as §1

CAMA1 = system: CAMA1
Outline: as §1

MCF12A = system: MCF12A
Outline: as §1

HCC1419 = system: HCC1419
Outline: as §1

MDAMB157 = system: MDAMB157
Outline: as §1

SKBR3 = system: SKBR3
Outline: as §1

ZR751 = system: ZR751
Outline: as §1

BT20 = system: BT20
Outline: as §1

184A1 = system: 184A1
Outline: as §1

SUM159PT = system: SUM159PT
Outline: as §1

UACC812 = system: UACC812
Outline: as §1

AU565 = system: AU565
Outline: as §1

MDAMB231 = system: MDAMB231
Outline: as §1

SUM185PE = system: SUM185PE
Outline: as §1

Compound | -log10 GI50 (SUM52PE) | -log10 GI50 (HCC38) | -log10 GI50 (HCC70) | -log10 GI50 (T47D_KBluc) | -log10 GI50 (184B5) | -log10 GI50 (SUM229PE) | -log10 GI50 (MDAMB453) | -log10 GI50 (CAMA1) | -log10 GI50 (MCF12A) | -log10 GI50 (HCC1419) | -log10 GI50 (MDAMB157) | -log10 GI50 (SKBR3) | -log10 GI50 (ZR751) | -log10 GI50 (BT20) | -log10 GI50 (184A1) | -log10 GI50 (SUM159PT) | -log10 GI50 (UACC812) | -log10 GI50 (AU565) | -log10 GI50 (MDAMB231) | -log10 GI50 (SUM185PE)
Cc1ccc(NC(=O)c2ccc(CN3CCN(C)CC3)cc2)cc1Nc1nccc(-c2cccnc2)n1 [Imatinib] | 4.65 | 4.45 | 4.77 | 4.67 | 4.63 | 5.27 | 4.95 | 4.71 | 4.37 | 4.74 | 4.76 | 4.63 | 4.56 | 4.89 | 4.86 | 4.75 | 4.98 | 4.72 | 4.82 | 4.91
C/C(=C\c1csc(C)n1)[C@@H]1C[C@@H]2O[C@]2(C)CCC[C@H](C)[C@H](O)[C@@H](C)C(=O)C(C)(C)[C@@H](O)CC(=O)N1 [Ixabepilone] | 9.53 | 8.55 | 8.85 | 7.61 | 6.76 | 8.72 | 8.34 | 9.02 | 8.13 | 4.93 | 8.33 | 7.99 | 6.68 | 8.45 | 6.67 | 8.16 | 5.24 | 8.42 | 9.34 | 8.07
C[C@]12O[C@H](C[C@]1(O)CO)n1c3ccccc3c3c4c(c5c6ccccc6n2c5c31)CNC4=O [Lestaurtinib] | 6.87 | 7.06 | 6.71 | 5.17 | 6.49 | 6.48 | 6.19 | 5.42 | 6.33 | 5.94 | 6.46 | 6 | 5.75 | 5.53 | 5.87 | 6.55 | 5.75 | 6.07 | 6.14 | 7.2
CC(C)C[C@@H](C=O)NC(=O)[C@H](CC(C)C)NC(=O)[C@H](CC(C)C)NC(=O)OCc1ccccc1 [MG-132] | 7.12 | 6.6 | 7.19 | 6.77 | 7.79 | 6.98 | 6.41 | 6.69 | 7.32 | 6.8 | 6.76 | 6.58 | 6.26 | 6.37 | 7.73 | 7.27 | 6.72 | 7.05 | 6.59 | 7.01
NS(=O)(=O)OC[C@@H]1C[C@@H](n2ccc3c(N[C@H]4CCc5ccccc54)ncnc32)C[C@@H]1O [MLN4924] | 6.41 | 7.3 | 5.47 | 6.71 | 6.93 | 6.59 | 5.81 | 7.29 | 7.04 | 6.68 | 7.25 | 6.82 | 5.32 | 5.7 | 6.24 | 6.31 | 5.98 | 6.74 | 7.03 | 7.27
COC(=O)Nc1nc2cc(C(=O)c3ccccc3)ccc2[nH]1 [Mebendazole] | 6.85 | 6.48 | 6.86 | 4.58 | < 4.18 | 5.68 | 6.75 | 6.33 | 5.74 | 4.72 | 6.3 | 6.49 | 6.62 | 6.19 | < 4.18 | 6.69 | 4.9 | 6.96 | 6.46 | 6.3
Cc1c(O)cccc1C(=O)N[C@@H](CSc1ccccc1)[C@H](O)CN1C[C@H]2CCCC[C@H]2C[C@H]1C(=O)NC(C)(C)C [Nelfinavir] | 4.75 | 4.78 | 4.75 | < 4.48 | 5.33 | 4.84 | 5.2 | 5.37 | 4.64 | 5.66 | 5.09 | 5.09 | 4.94 | 5.16 | 5.48 | 4.76 | < 4.48 | < 4.48 | 4.91 | 5.24
COc1ccc(C2=N[C@@H](c3ccc(Cl)cc3)[C@@H](c3ccc(Cl)cc3)N2C(=O)N2CCNC(=O)C2)c(OC(C)C)c1 [Nutlin 3a] | 4.74 | 4.67 | 4.73 | 4.5 | 5.3 | 4.63 | 4.25 | 4.34 | 5.82 | < 4.18 | 4.76 | 4.33 | 5.51 | 4.41 | 5.46 | 4.78 | 5.45 | 4.79 | < 4.18 | 4.54
Nc1nc2[nH]cc(CCc3ccc(C(=O)N[C@@H](CCC(=O)O)C(=O)O)cc3)c2c(=O)[nH]1 [Pemetrexed] | < 2.53 | < 2.53 | < 2.53 | < 2.53 | 6.44 | 4.53 | < 2.53 | 4.62 | 6.72 | < 2.53 | < 2.53 | 5.02 | 5.05 | < 2.53 | 6.38 | < 2.53 | < 2.53 | < 2.53 | < 2.53 | < 2.53
CO[C@H]1C[C@@H]2CC[C@@H](C)[C@@](O)(O2)C(=O)C(=O)N2CCCC[C@H]2C(=O)O[C@H]([C@H](C)C[C@@H]2CC[C@@H](O)[C@H](OC)C2)CC(=O)[C@H](C)/C=C(\C)[C@@H](O)[C@@H](OC)C(=O)[C@H](C)C[C@H](C)/C=C/C=C/C=C/1C [Rapamycin] | 8.52 | 7.31 | 6.92 | 5.65 | < 4.48 | 4.86 | 7.31 | 7.82 | 7.08 | 8.36 | < 3.78 | 8.09 |  | 7.17 | 6.72 | 7.34 | 7.33 | 7.62 | 5.78 | 6.04
N#Cc1c(-c2ccccc2)cc(-c2cc(Br)ccc2O)[nH]c1=O [TCS PIM-11] | 4.72 | 3.95 | 4.47 | < 3.88 | 5.61 | 4.57 | < 3.88 | < 3.88 | 4.36 | 4.31 | < 3.88 | < 3.88 | 4 | < 3.88 | 5.16 | 4.46 | < 3.88 | < 4.18 | < 3.88 | 4.67

From the supplement of paper PMC3937590
